Assay results reported in US20250154686A1, “COMPOUND LIBRARY” (CHUGAI SEIYAKU KABUSHIKI KAISHA, priority 2021, published 2025).

Target: T1, Bcl-2 protein (Recombinant Human Bcl-2 Protein) (Homo sapiens, UniProt P10415)
T1 construct: purchased Novus Biologicals NBP2-34889
Assay: AS-MS evaluation of binding of the Example 4 mixture library (1200 compounds/well) to Bcl-2, ASMS ratio (%)
Conditions: mixture library, value belongs to the MS peak assigned to the compound; for ASMS ratio (%) n = 1: replicate n = 1; for ASMS ratio (%) n = 2: replicate n = 2
In short: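 Affinity-selection MS: after spin-column size exclusion and organic extraction, LC/MS signals give an ASMS ratio (%), referenced to protein-free samples with and without column treatment. Binding step combined 20 μM human Bcl-2 with the 1200-compound pool at 20 nM per compound, 1 h, 23° C., dark, pH 7.4 Tris-HCl/NaCl/Tween-20/DTT.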

T1 sequence (P10415 whole entry): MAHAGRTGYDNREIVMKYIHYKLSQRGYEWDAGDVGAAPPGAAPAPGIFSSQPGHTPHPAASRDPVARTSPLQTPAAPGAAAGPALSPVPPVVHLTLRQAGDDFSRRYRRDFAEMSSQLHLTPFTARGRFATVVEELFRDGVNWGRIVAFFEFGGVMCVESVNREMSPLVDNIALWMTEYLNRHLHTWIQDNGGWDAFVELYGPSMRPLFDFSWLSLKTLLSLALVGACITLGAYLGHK

## CCOc1cncc(-c2ccc(CN3CCN(c4ccc(C(=O)NS(C)(=O)=O)nn4)CC3)c(OC)c2)c1 [Compound B2I080-01, 6-[4-[[4-(5-Ethoxypyridin-3-yl)-2-methoxyphenyl]methyl]piperazin-1-yl]-N-methylsulfonylpyridazine-3-carboxamide]
  ASMS ratio (%) n = 1: 0.0%

## CCOc1cccc(-c2cc(CN3CCN(c4ccc(C(=O)NS(C)(=O)=O)nn4)CC3)cc(OCC)c2)c1 [Compound B2I081-01, 6-[4-[[3-Ethoxy-5-(3-ethoxyphenyl)phenyl]methyl]piperazin-1-yl]-N-methylsulfonylpyridazine-3-carboxamide]
  ASMS ratio (%) n = 1: 0.0%
  ASMS ratio (%) n = 2: 0.0%

## CCOc1cncc(-c2cc(CN3CCN(c4ccc(C(=O)NS(C)(=O)=O)nn4)CC3)cc(OCC)c2)c1 [Compound B2I082-01, 6-[4-[[3-Ethoxy-5-(5-ethoxypyridin-3-yl)phenyl]methyl]piperazin-1-yl]-N-methylsulfonylpyridazine-3-carboxamide]
  ASMS ratio (%) n = 1: 0.0%
  ASMS ratio (%) n = 2: 1.9%

## CCOc1cccc(-c2cc(CN3CCN(c4ccc(C(=O)NS(C)(=O)=O)nn4)CC3)cc(OC(C)C)c2)c1 [Compound B2I083-01, 6-[4-[[3-(3-Ethoxyphenyl)-5-propan-2-yloxyphenyl]methyl]piperazin-1-yl]-N-methylsulfonylpyridazine-3-carboxamide]
  ASMS ratio (%) n = 1: 0.0%
  ASMS ratio (%) n = 2: 0.0%

## CCOc1cncc(-c2cc(CN3CCN(c4ccc(C(=O)NS(C)(=O)=O)nn4)CC3)cc(OC(C)C)c2)c1 [Compound B2I084-01, 6-[4-[[3-(5-Ethoxypyridin-3-yl)-5-propan-2-yloxyphenyl]methyl]piperazin-1-yl]-N-methylsulfonylpyridazine-3-carboxamide]
  ASMS ratio (%) n = 1: −0.9%
  ASMS ratio (%) n = 2: −1.5%

## CCOc1cccc(-c2cc(OC)c(CN3CCN(c4ccc(C(=O)NS(C)(=O)=O)nn4)CC3)c(OC)c2)c1 [Compound B2I085-01, 6-[4-[[4-(3-Ethoxyphenyl)-2,6-dimethoxyphenyl]methyl]piperazin-1-yl]-N-methylsulfonylpyridazine-3-carboxamide]
  ASMS ratio (%) n = 1: 0.0%
  ASMS ratio (%) n = 2: 0.0%

## CCOc1cncc(-c2cc(OC)c(CN3CCN(c4ccc(C(=O)NS(C)(=O)=O)nn4)CC3)c(OC)c2)c1 [Compound B2I086-01, 6-[4-[[4-(5-Ethoxypyridin-3-yl)-2,6-dimethoxyphenyl]methyl]piperazin-1-yl]-N-methylsulfonylpyridazine-3-carboxamide]
  ASMS ratio (%) n = 1: 0.0%
  ASMS ratio (%) n = 2: 0.0%

## CCOc1cccc(-c2cc(CN3CCN(c4ccc(C(=O)NS(C)(=O)=O)nn4)CC3)cc(C(F)(F)F)c2)c1 [Compound B2I087-01, 6-[4-[[3-(3-Ethoxyphenyl)-5-(trifluoromethyl)phenyl]methyl]piperazin-1-yl]-N-methylsulfonylpyridazine-3-carboxamide]
  ASMS ratio (%) n = 1: 1.3%
  ASMS ratio (%) n = 2: −0.9%

## CCOc1cncc(-c2cc(CN3CCN(c4ccc(C(=O)NS(C)(=O)=O)nn4)CC3)cc(C(F)(F)F)c2)c1 [Compound B2I088-01, 6-[4-[[3-(5-Ethoxypyridin-3-yl)-5-(trifluoromethyl)phenyl]methyl]piperazin-1-yl]-N-methylsulfonylpyridazine-3-carboxamide]
  ASMS ratio (%) n = 1: 0.0%
  ASMS ratio (%) n = 2: 0.0%

## CCOc1cccc(-c2cc(CN3CCN(c4ccc(C(=O)NS(C)(=O)=O)nn4)CC3)cc(OC(F)(F)F)c2)c1 [Compound B2I089-01, 6-[4-[[3-(3-Ethoxyphenyl)-5-(trifluoromethoxy)phenyl]methyl]piperazin-1-yl]-N-methylsulfonylpyridazine-3-carboxamide]
  ASMS ratio (%) n = 1: 1.4%
  ASMS ratio (%) n = 2: 0.0%

## CCOc1cncc(-c2cc(CN3CCN(c4ccc(C(=O)NS(C)(=O)=O)nn4)CC3)cc(OC(F)(F)F)c2)c1 [Compound B2I090-01, 6-[4-[[3-(5-Ethoxypyridin-3-yl)-5-(trifluoromethoxy)phenyl]methyl]piperazin-1-yl]-N-methylsulfonylpyridazine-3-carboxamide]
  ASMS ratio (%) n = 1: 0.0%
  ASMS ratio (%) n = 2: 0.0%

## CCOc1cncc(-c2ccc(CN3CCN(c4ccc(C(=O)NS(C)(=O)=O)nn4)CC3)c3ccccc23)c1 [Compound B2I092-01, 6-[4-[[4-(5-Ethoxypyridin-3-yl)naphthalen-1-yl]methyl]piperazin-1-yl]-N-methylsulfonylpyridazine-3-carboxamide]
  ASMS ratio (%) n = 1: 2.6%
  ASMS ratio (%) n = 2: 0.3%

## CCOc1cncc(-c2csc(CN3CCN(c4ccc(C(=O)NS(C)(=O)=O)nn4)CC3)c2)c1 [Compound B2I094-01, 6-[4-[[4-(5-Ethoxypyridin-3-yl)thiophen-2-yl]methyl]piperazin-1-yl]-N-methylsulfonylpyridazine-3-carboxamide]
  ASMS ratio (%) n = 1: 0.0%
  ASMS ratio (%) n = 2: 0.0%

## CCOc1cccc(C#Cc2ccccc2CN2CCN(c3ccc(C(=O)NS(C)(=O)=O)nn3)CC2)c1 [Compound B2I095-01, 6-[4-[[2-[2-(3-Ethoxyphenyl)ethynyl]phenyl]methyl]piperazin-1-yl]-N-methylsulfonylpyridazine-3-carboxamide]
  ASMS ratio (%) n = 1: 0.0%
  ASMS ratio (%) n = 2: 0.0%

## CCOc1cncc(C#Cc2ccccc2CN2CCN(c3ccc(C(=O)NS(C)(=O)=O)nn3)CC2)c1 [Compound B2I096-01, 6-[4-[[2-[2-(5-Ethoxypyridin-3-yl)ethynyl]phenyl]methyl]piperazin-1-yl]-N-methylsulfonylpyridazine-3-carboxamide]
  ASMS ratio (%) n = 1: 0.0%
  ASMS ratio (%) n = 2: 0.0%

## CCOc1cccc(-c2ccc(C(C)N3CCN(c4ccc(C(=O)NS(C)(=O)=O)cc4)CC3)cc2)c1 (stereo not drawn) [Compound B2I097-01, 4-[4-[1-[4-(3-Ethoxyphenyl)phenyl]ethyl]piperazin-1-yl]-N-methylsulfonylbenzamide]
  ASMS ratio (%) n = 1: 0.8%
  ASMS ratio (%) n = 2: 1.4%

## CCOc1cncc(-c2ccc(C(C)N3CCN(c4ccc(C(=O)NS(C)(=O)=O)cc4)CC3)cc2)c1 (stereo not drawn) [Compound B2I098-01, 4-[4-[1-[4-(5-Ethoxypyridin-3-yl)phenyl]ethyl]piperazin-1-yl]-N-methylsulfonylbenzamide]
  ASMS ratio (%) n = 1: 0.0%
  ASMS ratio (%) n = 2: 0.0%

## CCOc1cccc(-c2ccc(C(C)N3CCN(c4ccc(C(=O)NS(C)(=O)=O)cc4)CC3)c(F)c2)c1 (stereo not drawn) [Compound B2I099-01, 4-[4-[1-[4-(3-Ethoxyphenyl)-2-fluorophenyl]ethyl]piperazin-1-yl]-N-methylsulfonylbenzamide]
  ASMS ratio (%) n = 2: 0.0%

## CCOc1cccc(-c2csc(C(=O)N3CCN(c4ccc(C(=O)NS(=O)(=O)C(C)(C)C)nn4)CC3)c2)c1 [Compound B2L001-01]
  ASMS ratio (%) n = 1: −67.5%
  ASMS ratio (%) n = 2: 0.0%

## CCOc1cncc(-c2csc(C(=O)N3CCN(c4ccc(C(=O)NS(=O)(=O)C(C)(C)C)nn4)CC3)c2)c1 [Compound B2L002-01, N-tert-Butylsulfonyl-6-[4-[4-(5-ethoxypyridin-3-yl)thiophene-2-carbonyl]piperazin-1-yl]pyridazine-3-carboxamide]
  ASMS ratio (%) n = 1: 0.0%
  ASMS ratio (%) n = 2: 0.0%

## CCOc1cccc(-c2ccc(C(=O)N3CCN(c4ccc(C(=O)NS(=O)(=O)C(C)(C)C)nn4)CC3)cc2C)c1 [Compound B2L003-01]
  ASMS ratio (%) n = 1: 0.0%
  ASMS ratio (%) n = 2: 0.0%

## CCOc1cncc(-c2ccc(C(=O)N3CCN(c4ccc(C(=O)NS(=O)(=O)C(C)(C)C)nn4)CC3)cc2C)c1 [Compound B2L004-01]
  ASMS ratio (%) n = 1: 5.5%
  ASMS ratio (%) n = 2: 9.3%

## CCOc1cccc(-c2ccc(C(=O)N3CCN(c4ccc(C(=O)NS(=O)(=O)C(C)(C)C)nn4)CC3)cc2F)c1 [Compound B2L005-01]
  ASMS ratio (%) n = 1: 0.0%
  ASMS ratio (%) n = 2: 0.0%

## CCOc1cncc(-c2ccc(C(=O)N3CCN(c4ccc(C(=O)NS(=O)(=O)C(C)(C)C)nn4)CC3)cc2F)c1 [Compound B2L006-01]
  ASMS ratio (%) n = 1: 0.0%
  ASMS ratio (%) n = 2: 0.0%

## CCOc1cccc(C#Cc2ccccc2C(=O)N2CCN(c3ccc(C(=O)NS(=O)(=O)C(C)(C)C)nn3)CC2)c1 [Compound B2L007-01]
  ASMS ratio (%) n = 1: 0.0%
  ASMS ratio (%) n = 2: −1.0%

## CCOc1cncc(C#Cc2ccccc2C(=O)N2CCN(c3ccc(C(=O)NS(=O)(=O)C(C)(C)C)nn3)CC2)c1 [Compound B2L008-01]
  ASMS ratio (%) n = 1: 0.0%
  ASMS ratio (%) n = 2: 0.0%

## CCOc1cccc(C#Cc2cncc(C(=O)N3CCN(c4ccc(C(=O)NS(=O)(=O)C(C)(C)C)nn4)CC3)c2)c1 [Compound B2L009-01, N-tert-Butylsulfonyl-6-[4-[5-[2-(3-ethoxyphenyl)ethynyl]pyridine-3-carbonyl]piperazin-1-yl]pyridazine-3-carboxamide]
  ASMS ratio (%) n = 1: 0.0%
  ASMS ratio (%) n = 2: 0.0%

## CCOc1cncc(C#Cc2cncc(C(=O)N3CCN(c4ccc(C(=O)NS(=O)(=O)C(C)(C)C)nn4)CC3)c2)c1 [Compound B2L010-01]
  ASMS ratio (%) n = 1: 0.0%
  ASMS ratio (%) n = 2: 0.0%

## CCOc1cccc(-c2ccccc2CCC(=O)N2CCN(c3ccc(C(=O)NS(=O)(=O)C(C)(C)C)nn3)CC2)c1 [Compound B2L011-01]
  ASMS ratio (%) n = 1: 0.0%
  ASMS ratio (%) n = 2: 0.0%

## CCOc1cncc(-c2ccccc2CCC(=O)N2CCN(c3ccc(C(=O)NS(=O)(=O)C(C)(C)C)nn3)CC2)c1 [Compound B2L012-01]
  ASMS ratio (%) n = 1: 4.3%
  ASMS ratio (%) n = 2: 7.3%

## CCOc1cccc(-c2ccc(C(=O)N3CCN(c4ccc(C(=O)NS(=O)(=O)C(C)(C)C)nn4)CC3)c3ccccc23)c1 [Compound B2L013-01]
  ASMS ratio (%) n = 1: 0.0%
  ASMS ratio (%) n = 2: 0.0%
